# How the values were obtained:
# [1] = tested on: Patients; assay: MultiVitamins and Probucol (MVP) randomized clinical trial, angiographic and clinical endpoints; assay type: in vivo, human
# Description: It was not possible to determine with angiography alone whether probucol acted via inhibition of tissue hyperplasia or improvement in vascular remodeling. […] In addition, the invention enables the skilled practitioner to use probucol in conjunction with other percutaneous coronary interventions such as stenting if it is deemed appropriate.
# The present invention concerns the IVUS substudy from the MVP restenosis trial. MVP was a double-blind placebo-controlled randomized clinical trial with four study groups. The protocol was approved by the Montreal Heart Institute institutional review board. The MVP study design, inclusion and exclusion criteria have been previously described (N Engl J Med 1997; 365-372). Briefly, patients referred for elective coronary angioplasty were evaluated at least 30 days prior to their scheduled procedure. Eligible patients were asked to provide written informed consent. Patients were eligible if they were scheduled to undergo standard balloon angioplasty on at least one native coronary artery and had at least one de novo target lesion with luminal narrowing of fifty percent or more by caliper measurements.
# Beginning thirty days prior to scheduled angioplasty, patients were randomly assigned to receive either probucol alone, multivitamins alone, the combination of probucol and multivitamins, or placebo. Probucol 500 mg or matched placebo was administered twice daily. The multivitamin complex, consisting of vitamin E 700 IU, vitamin C 500 mg and beta-carotene 30,000 IU, or matched placebo was also administered in one tablet twice daily. All patients received an extra dose of probucol 1000 mg and/or vitamin E 2000 IU and/or matched placebos twelve hours before angioplasty, according to randomization assignment. […] All patients received aspirin 325 mg daily started at least thirty days before procedure and continued for the study period. Balloon angioplasty was performed according to standard techniques. Intracoronary nitroglycerin (0.3 mg) was given for each target artery for both pre- and post-dilatation angiography and at follow-up. The sequence of contrast injections with the exact degree of angulation was recorded and used for every angiogram. Coronary arteriograms (pre-, post-procedure, and final follow-up) were analyzed together using the Coronary Measurement System (CMS), as previously reported. Patient follow-up included clinical evaluation, exercise treadmill testing, blood chemistry, pill count and drug level measurements, and dietary assessment and intervention. Patients were readmitted for follow-up coronary angiography at five to seven months. […]
# [2] = tested on: Patients; assay: IVUS substudy of the MVP restenosis trial; assay type: in vivo, human
# Description: Serial intravascular ultrasound (IVUS) examinations have been performed in a consecutive series of patients involved in the MVP trial. By providing tomographic views of coronary arteries with high resolution, IVUS allows quantitative assessment of changes in arterial lumen and wall dimensions. We were therefore able in this study to determine the pathophysiology of coronary restenosis after balloon angioplasty in patients systematically undergoing follow-up IVUS examination and determine the effect of probucol on tissue hyperplasia and vascular remodeling after coronary angioplasty. The present invention concerns the IVUS substudy from the MVP restenosis trial. MVP was a double-blind placebo-controlled randomized clinical trial with four study groups. The protocol was approved by the Montreal Heart Institute institutional review board. The MVP study design, inclusion and exclusion criteria have been previously described (N Engl J Med 1997; 365-372). Briefly, patients referred for elective coronary angioplasty were evaluated at least 30 days prior to their scheduled procedure. Eligible patients were asked to provide written informed consent. […] The sequence of contrast injections with the exact degree of angulation was recorded and used for every angiogram. Coronary arteriograms (pre-, post-procedure, and final follow-up) were analyzed together using the Coronary Measurement System (CMS), as previously reported. […] Patients were readmitted for follow-up coronary angiography at five to seven months. […] IVUS imaging was monitored by an experienced cardiologist, but the angioplasty operator was blinded to ultrasound results to avoid altering standard balloon angioplasty practice. […] One angiographic view was recorded on videotape before beginning pullback of the IVUS catheter. […] Simultaneous high-resolution fluoroscopic images were recorded on the IVUS imaging screen during pullbacks to constantly know the location of the IVUS transducer. […]
# [3] = tested on: LDL; assay: ex vivo copper-induced LDL peroxidation, monitoring of diene conjugates (lag phase); set-up: species or system human; details: treatment for one month; preliminary results
# Description: Dietary intervention and smoking habits were similar in all groups. Probucol may simply be a more powerful antioxidant than the combination of vitamins. To this regard, preliminary results from the continuous spectrophotometric monitoring of diene conjugates in LDL after the addition of copper ions to the isolated lipoprotein ex vivo (Free Radic Res Commun 1989; 6:67-75) of MVP patients are noteworthy.
smiles,measurement,setting,value
"CC(C)(Sc1cc(C(C)(C)C)c(O)c(C(C)(C)C)c1)Sc1cc(C(C)(C)C)c(O)c(C(C)(C)C)c1 [Probucol Alone, 4,4′-([1-methylethylidene)bis(thio)]bis-[2,6-bis(1,1-dimethylethyl)phenol]]",patients in whom restenosis still occurred,[1]; probucol alone,over twenty
same,reduction in restenosis rate per segment compared to placebo,[1]; probucol given alone,forty-seven
same,reduction in the need for repeat angioplasty compared to placebo,"[1]; probucol given alone, at 6 month",fifty-eight
same,reduction in angiographic lumen loss compared to placebo,"[1]; probucol given alone, thirty days before and six months after angioplasty",sixty-eight
same,"Lumen area (mm^2), Follow-up Post PTCA (change)",[2]; efficacy analysis in compliant patients,−0.15 ± 1.70 mm^2
same,"Lumen area (mm^2), Follow-up Post PTCA (change)","[2]; per segment analysis, Placebo −1.21 ± 1.88",−0.15 ± 1.70 mm^2
same,increase in vessel enlargement,[2]; probucol only versus placebo (EEM 1.74 versus 0.29 mm^2),seven hundred-thirty
same,protection against LDL oxidation (lag phase for LDL peroxidation),[3],significantly greater protection against LDL oxidation than vitamins alone or the combination of probucol and vitamins
